# Laboratory results reported in ChEMBL document CHEMBL1201862, “PubChem BioAssay data set” (2004).
# Several values for one entry are separate records, joined by “and”; a condition that tells them apart may be missing. Identical values can stand only once.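 Dose response: 5 concentrations. Exposure: 48 h. Format: 96-well plates. Endpoint: linear interpolation; highest concentration if not reached. GI50: concentration for 50% inhibition of growth.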 Activity calls are given as the source filed them. Rule as the data show it: active = GI50 up to about 1.1 µM and inactive = higher.
# Experiments:
# Experiment in all cases: NCI tumour cell line growth inhibition, 48 h
# [1] = system: Malme-3M
# [2] = system: TK-10
# [3] = system: A549
# [4] = system: SF-268
# [5] = system: SF-295
# [6] = system: MDA-MB-231
# [7] = system: SR
# [8] = system: OVCAR-3
# [9] = system: NCI-H460
# [10] = system: SK-MEL-2
# [11] = system: M14
# [12] = system: U-251
# [13] = system: KM12
# [14] = system: Hs-578T
# [15] = system: SNB-19
# [16] = system: HT-29
# [17] = system: BT-549
# [18] = system: HL-60
# [19] = system: SNB-75
# [20] = system: MCF7
Compound,GI50 [1],GI50 [2],GI50 [3],GI50 [4],GI50 [5],GI50 [6],GI50 [7],GI50 [8],GI50 [9],GI50 [10],GI50 [11],GI50 [12],GI50 [13],GI50 [14],GI50 [15],GI50 [16],GI50 [17],GI50 [18],GI50 [19],GI50 [20]
Nc1ccc(-c2nc3ccccc3s2)cc1CO,> 100 µM (inactive),> 100 µM (inactive),> 58.7 µM (inactive),> 73.5 µM (inactive),36.5 µM (inactive),> 70 µM (inactive),> 84.3 µM (inactive),> 100 µM (inactive),68.4 µM (inactive),> 85.7 µM (inactive),64.6 µM (inactive),> 76.4 µM (inactive),41.7 µM (inactive),> 83.6 µM (inactive),50.6 µM (inactive),> 100 µM (inactive),47.3 µM (inactive),39 µM (inactive),> 100 µM (inactive),
O=C(N(C1=CCCC1)N(c1ccccc1)c1ccccc1)C(F)(F)F,3.76 µM (inactive),39.9 µM (inactive),26.4 µM (inactive),16.7 µM (inactive),22.6 µM (inactive),16.9 µM (inactive),31 µM (inactive),18.9 µM (inactive),17.5 µM (inactive),17.1 µM (inactive),26.2 µM (inactive),19.8 µM (inactive),18.1 µM (inactive),,30 µM (inactive),17.3 µM (inactive),29.9 µM (inactive),20.3 µM (inactive),20 µM (inactive),19.7 µM (inactive)
N#CC1=CNc2sccc2S1(=O)=O,> 100 µM (inactive),> 100 µM (inactive),> 100 µM (inactive),81.7 µM (inactive),> 100 µM (inactive),> 100 µM (inactive),,> 100 µM (inactive),40.7 µM (inactive),> 100 µM (inactive),> 100 µM (inactive),> 100 µM (inactive),1.68 µM (inactive),> 100 µM (inactive),> 100 µM (inactive),> 100 µM (inactive),> 100 µM (inactive),,> 100 µM (inactive),> 100 µM (inactive)
N#Cc1c(-c2ccccc2)c(C#N)c(=O)n(NS(=O)(=O)c2ccccc2)c1O,> 100 µM (inactive),> 100 µM (inactive),> 100 µM (inactive),> 100 µM (inactive),> 100 µM (inactive),> 100 µM (inactive),,,> 100 µM (inactive),> 100 µM (inactive),> 100 µM (inactive),> 100 µM (inactive),> 100 µM (inactive),> 100 µM (inactive),> 100 µM (inactive),> 100 µM (inactive),> 100 µM (inactive),> 100 µM (inactive),> 100 µM (inactive),> 100 µM (inactive)
O=C1NC(Nc2ccccc2)=N/C1=C\c1c(Cl)cccc1Cl,22.7 µM (inactive),18.9 µM (inactive),18.2 µM (inactive),29.3 µM (inactive),31.3 µM (inactive),,5.09 µM (inactive),63.4 µM (inactive),24.9 µM (inactive),18 µM (inactive),22.8 µM (inactive),17.9 µM (inactive),29.5 µM (inactive),25.8 µM (inactive),25 µM (inactive),30.6 µM (inactive),> 100 µM (inactive),3.32 µM (inactive),18.9 µM (inactive),19.4 µM (inactive)
CC1(C)CC(=O)c2c(nc(SSc3nc4c(c(-c5ccccc5)c3C#N)C(=O)CC(C)(C)C4)c(C#N)c2-c2ccccc2)C1,> 10 µM (inactive),> 10 µM (inactive),> 10 µM (inactive),> 10 µM (inactive),> 10 µM (inactive),,,> 10 µM (inactive),> 10 µM (inactive),> 10 µM (inactive),> 10 µM (inactive),> 10 µM (inactive),> 10 µM (inactive),> 10 µM (inactive),> 10 µM (inactive),> 10 µM (inactive),> 10 µM (inactive),> 10 µM (inactive),> 10 µM (inactive),> 10 µM (inactive)
COc1c(C)c(C/C=C(\C)CCCCO)c(OC)c2ccccc12,,63.8 µM (inactive),36.1 µM (inactive),44 µM (inactive),41.4 µM (inactive),40.6 µM (inactive),26.3 µM (inactive),62.4 µM (inactive),20.6 µM (inactive),83.6 µM (inactive),37.2 µM (inactive),64.4 µM (inactive),23.9 µM (inactive),30.2 µM (inactive),> 100 µM (inactive),20.4 µM (inactive),46.7 µM (inactive),,33 µM (inactive),38.5 µM (inactive)
Cc1cc2nc(-c3cc(C(C)(C)C)c(O)c(C(C)(C)C)c3)[nH]c2cc1C,> 100 µM (inactive),> 22.3 µM (inactive),2.44 µM (inactive),9.62 µM (inactive),> 100 µM (inactive),,1.06 µM (active),11.6 µM (inactive),4.47 µM (inactive),> 100 µM (inactive),4.67 µM (inactive),2.64 µM (inactive),3.39 µM (inactive),17.2 µM (inactive),11.6 µM (inactive),,> 100 µM (inactive),13.8 µM (inactive),> 100 µM (inactive),
CC(=O)ON(OC(C)=O)c1ccc(C)cc1,> 100 µM (inactive),> 100 µM (inactive),> 100 µM (inactive),> 100 µM (inactive),> 100 µM (inactive),> 100 µM (inactive),,> 100 µM (inactive),> 100 µM (inactive),> 100 µM (inactive),> 100 µM (inactive),> 100 µM (inactive),> 100 µM (inactive),> 100 µM (inactive),> 100 µM (inactive),> 100 µM (inactive),> 100 µM (inactive),,> 100 µM (inactive),> 100 µM (inactive)
O=C(CC1(O)CCCCC1)OC1CCCC1,> 100 µM (inactive),> 100 µM (inactive),> 100 µM (inactive),> 100 µM (inactive),> 100 µM (inactive),> 100 µM (inactive),,> 100 µM (inactive),> 100 µM (inactive),> 100 µM (inactive),> 100 µM (inactive),> 100 µM (inactive),> 100 µM (inactive),> 100 µM (inactive),> 100 µM (inactive),> 100 µM (inactive),> 100 µM (inactive),,> 100 µM (inactive),> 100 µM (inactive)
COC(=O)/C(=N\N)C(C(=O)C(=O)Nc1cccc([N+](=O)[O-])c1)c1nc2ccc(C(=O)c3ccccc3)cc2nc1O (configuration not stated),,39.9 µM (inactive),61.4 µM (inactive),> 100 µM (inactive),96.4 µM (inactive),> 100 µM (inactive),,> 100 µM (inactive),> 100 µM (inactive),> 100 µM (inactive),> 100 µM (inactive),> 100 µM (inactive),> 100 µM (inactive),> 100 µM (inactive),> 100 µM (inactive),> 100 µM (inactive),> 100 µM (inactive),32.5 µM (inactive),> 100 µM (inactive),54.2 µM (inactive)
N#Cc1c(-c2ccccc2)c(C#N)c(=S)n(C2OC(CO)C(O)C(O)C2O)c1N (configuration not stated),> 100 µM (inactive),,> 100 µM (inactive),> 100 µM (inactive),> 100 µM (inactive),> 100 µM (inactive),> 100 µM (inactive),> 100 µM (inactive),94 µM (inactive),> 100 µM (inactive),> 100 µM (inactive),> 100 µM (inactive),> 100 µM (inactive),79.8 µM (inactive),> 100 µM (inactive),> 100 µM (inactive),46.1 µM (inactive) and 80 µM (inactive),> 100 µM (inactive),42.2 µM (inactive) and 64.9 µM (inactive),
C=C(Br)C(Cl)(CBr)CCC(Br)C(C)(C)Cl (configuration not stated),,> 10 µM (inactive),> 10 µM (inactive),> 10 µM (inactive),> 10 µM (inactive),> 10 µM (inactive),> 10 µM (inactive),> 10 µM (inactive),,> 10 µM (inactive),> 10 µM (inactive),> 10 µM (inactive),> 10 µM (inactive),,> 10 µM (inactive),> 10 µM (inactive),> 10 µM (inactive),> 10 µM (inactive),> 10 µM (inactive),7.83 µM (inactive)
COC(=O)/C=c1/c2ccccc2n2c1c1ccccc1[n+]2C,2.98 µM (inactive),2.67 µM (inactive),3.82 µM (inactive),5.38 µM (inactive),2.69 µM (inactive),4.59 µM (inactive),,3.55 µM (inactive),3.37 µM (inactive),4.08 µM (inactive),3.99 µM (inactive),2.61 µM (inactive),2.71 µM (inactive),2.64 µM (inactive),4.88 µM (inactive),3.79 µM (inactive),3.3 µM (inactive),2.84 µM (inactive),3.69 µM (inactive),3.34 µM (inactive)
CSc1nc(Cl)c2c(n1)Sc1nc3cc4c(cc3n1C2O)OCO4 (configuration not stated),0.516 µM (active),1.65 µM (inactive),0.617 µM (active),0.637 µM (active),0.818 µM (active),0.391 µM (active),,0.982 µM (active),0.364 µM (active),0.726 µM (active),0.333 µM (active),0.791 µM (active),0.194 µM (active),1.05 µM (active),1.57 µM (inactive),0.254 µM (active),0.452 µM (active),,3.75 µM (inactive),0.338 µM (active)
